In assay [1] the test system is A. baumannii A-8.2–1 (XDR). The assay is described as follows: microbe, parasite or virus in culture. It is filed as cell-based, Acinetobacter baumannii. The following applies: clinical isolate A-8.2–1 (XDR), blood. In a few lines:
(§1)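 Strains were grown at 37 °C with shaking (E. coli in LB), then mid-log cells diluted into Müeller-Hinton broth at 2–8 × 10^5 CFU/mL and exposed to serial agent concentrations. Non-turbid wells were plated for MBC.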

The test system of assay [2] is A. baumannii ATCC 19,606. Description: microbe, parasite or virus in culture. The format is cell-based, Acinetobacter baumannii. The note with it: A. baumannii ATCC 19,606, triplicate; for MIC: broth microdilution (modified CLSI), MHB, 2–8 × 10^5 CFU/mL, 24 h, 37 °C; for MBC: colony count from non-turbid MIC wells. In a few lines:
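Lowest concentration preventing growth defined MIC (CLSI-based broth dilution, MHB, 2–8 × 10^5 CFU/mL); MBC was scored by colony-count plating of non-turbid wells, with absence of colonies marking the bactericidal level.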

Assay [3] has as its system A. baumannii B-8.1–1 (MDR). The assay is described as follows: microbe, parasite or virus in culture. The format is cell-based, Acinetobacter baumannii. The following applies: clinical isolate B-8.1–1 (MDR), respiratory tract. In a few lines:
as §1

Assay [4] has as its system A. baumannii B-8.1–2 (MDR). The assay is described as follows: microbe, parasite or virus in culture. The format is cell-based, Acinetobacter baumannii. The following applies: clinical isolate B-8.1–2 (MDR), respiratory tract. A digest of the protocol:
as §1

Assay [5] relates to A. baumannii B-8.2–2 (XDR). Description: microbe, parasite or virus in culture. The format is cell-based, Acinetobacter baumannii. The following applies: clinical isolate B-8.2–2 (XDR), respiratory tract. A digest of the protocol:
as §1

The subject of assay [6] is A. baumannii C-8.1–2 (MDR). Description: microbe, parasite or virus in culture. The format is cell-based, Acinetobacter baumannii. The following applies: clinical isolate C-8.1–2 (MDR), sterile site. A digest of the protocol: as §1
For assay [7], the system named is A. baumannii C-8.2–1 (XDR). Description: microbe, parasite or virus in culture. The format is cell-based, Acinetobacter baumannii. The note with it: clinical isolate C-8.2–1 (XDR), sterile site. In a few lines: as §1
For assay [8], the system named is A. baumannii ATCC 19,606. Description: microbe, parasite or virus in culture. The note with it: 20 serial 24-h passages at half-MIC, MHB. Here is the method:
A. baumannii ATCC 19,606 was adjusted to approximately 10^6 CFU/ml in MHB. […] After 24 h incubation, bacterial suspensions of the wells at half-MIC concentration of tested agent were taken and washed 2 times with MHB to prepare the next initial-passage of bacteria. Twenty repeat passages were performed for each tested compound. Along with the test, a negative control was included: the MIC value of bacteria cultured in MHB-deionized water after 20 passages.

Assay [9] relates to Bacillus cereus ATCC 11,778. It is filed as cell-based. The following applies: B. cereus ATCC 11,778; broth microdilution, MHB, 24 h, 37 °C, triplicate. The source says: (§2) Ten strains of both Gram-positive and -negative bacteria, including Staphylococcus aureus ATCC 25,923, S. epidermidis ATCC 12,228, Bacillus cereus ATCC 11,778, Listeria monocytogenes 10403S, Salmonella typhimurium ATCC 13,311, Pseudomonas aeruginosa ATCC 27,853, Shigella sonnei ATCC 11,060, A. baumannii ATCC 19,606, Escherichia coli ATCC 25,922 and E. coli O157:H7, were used in this study. Eight clinical isolates of multidrug-resistant (MDR) and extensively drug-resistant (XDR) A. baumannii, isolated from human (blood, sputum, respiratory sample, sterile site sample and urine), were kindly provided by Asst. Prof. Dr. Sakawrat Kanthawong (Faculty of Medicine, Khon Kaen University, Thailand) (Table S1). All bacterial strains, excluding L. monocytogenes 10403S and E. coli, were cultured in tryptic soy broth (TSB). L. monocytogenes was grown in TSB supplemented with 0.6% yeast extract (TSB-YE), and E. coli was cultured in Luria broth (LB). All of bacteria were cultured at 37 °C with continuous shaking at 220 rpm.
(§3) Minimum inhibitory concentration (MIC) of peptides and antibiotics was assessed by a modified version of the broth microdilution method from the Clinical and Laboratory Standards Institute (CLSI) as previously described. In brief, mid-log phase growths of microbial strains were cultured in Müeller-Hinton broth (MHB) with an initial inoculum of 2–8 × 10^5 CFU/mL. Bacteria suspensions were incubated in sterile 96-well plates with test agents at desired concentrations. […] Minimum bactericidal concentration (MBC) determination was performed using a modified version of the colony count assay. In brief, fifty µl of all non-turbid wells from MIC experiments were spread on agar plates. The MBC value was defined as the lowest concentration of peptides with no colony growth on the plate. All assays were performed in triplicate.

For assay [10], the system named is Escherichia coli ATCC 25,922. It is filed as cell-based. The following applies: E. coli ATCC 25,922; broth microdilution, MHB, 24 h, 37 °C, triplicate.
Excerpt: as §2, §3

Assay [11] has as its system Escherichia coli O157:H7 MT strain. The format is cell-based. The following applies: E. coli O157:H7 MT strain; broth microdilution, MHB, 24 h, 37 °C, triplicate.
Excerpt: as §2, §3

The test system of assay [12] is Listeria monocytogenes 10403S. It is filed as cell-based. The following applies: L. monocytogenes 10403S; broth microdilution, MHB, 24 h, 37 °C, triplicate.
Excerpt: as §2, §3
In general terms: Broth dilution looks for growth in wells or tubes with falling amounts of substance.

Assay [13] relates to Pseudomonas aeruginosa ATCC 27,853. The format is cell-based. The note with it: P. aeruginosa ATCC 27,853; broth microdilution, MHB, 24 h, 37 °C, triplicate.
Excerpt: as §2, §3

For assay [14], the system named is Salmonella Typhimurium ATCC 13,311. It is filed as cell-based. The following applies: S. Typhimurium ATCC 13,311; broth microdilution, MHB, 24 h, 37 °C, triplicate.
Excerpt: as §2, §3

The subject of assay [15] is Shigella sonnei ATCC 11,060. It is filed as cell-based. The following applies: S. sonnei ATCC 11,060; broth microdilution, MHB, 24 h, 37 °C, triplicate.
Excerpt: as §2, §3

For assay [16], the system named is Staphylococcus aureus ATCC 25,923. It is filed as cell-based. The following applies: S. aureus ATCC 25,923; broth microdilution, MHB, 24 h, 37 °C, triplicate.
Excerpt: as §2, §3

The subject of assay [17] is Staphylococcus epidermidis ATCC 12,228. The format is cell-based. The note with it: S. epidermidis ATCC 12,228; broth microdilution, MHB, 24 h, 37 °C, triplicate.
Excerpt: as §2, §3

Converted amounts (≈) assume the structure as drawn. Non-standard residues stand in square brackets, D forms with d. Residues, ends and D or L forms follow the SMILES beside them. No end group written: not given here.

For `CC[C@@H](C)[C@@H](NC(=O)[C@@H](CCCCN)NC(=O)CNC(=O)[C@@H](C)NC(=O)[C@H](NC(=O)[C@@H](CCCCN)NC(=O)[C@@H](CCCCN)NC(=O)[C@H](NC(=O)[C@@H](CCCNC(=N)N)NC(=O)[C@@H](CCCNC(=N)N)NC(=O)[C@@H](Cc1ccccc1)NC(=O)[C@@H](CC(C)C)NC(=O)[C@H](N)CCCNC(=N)N)C(C)C)C(C)C)C(=O)N[C@H](C)C(=O)N[C@H](CCCCN)C(=O)N[C@H](CCCNC(=N)N)C(=O)N[C@@H](C(=O)N[C@H](Cc1c[nH]c2ccccc12)C(=O)N[C@H](CCCCN)C(N)=O)[C@H](C)CC` [D-AP19] (H-[dR][dL][dF][dR][dR][dV][dK][dK][dV][dA]G[dK][dI][dA][dK][dR][dI][dW][dK]-NH2), the MBC in [1] is listed as 7.81(7.81) µg/ml; in the assay on A. baumannii ATCC 19,606 [2], 7.81 (7.81) µg/ml; in assay [3], 7.81(7.81) µg/ml; in assay [4], 15.63(15.63) µg/ml; in assay [5] it was 7.81(7.81) µg/ml; in assay [6], 3.91(3.91) µg/ml. The MBC in assay [7] is listed as 7.81(7.81) µg/ml. Also, the MIC is 7.81(7.81) µg/ml in assay [1]; 7.81 (7.81) µg/ml in the assay on A. baumannii ATCC 19,606 [2]; 7.81(7.81) µg/ml in assay [3]; 15.63(15.63) µg/ml in assay [4]; 7.81(7.81) µg/ml in assay [5]; 3.91(3.91) µg/ml in [6]. Moreover, in assay [7], the MIC is given as 7.81(7.81) µg/ml. Further, in the assay on A. baumannii ATCC 19,606 [8], the “MIC after 20 passages” value is reported as 7.81 µg/mL (≈ 3.32 µM).

RLFRRVKKVAGKIAKRIWK-NH2 [AP19]: the MBC in [1] is 3.91(3.91) µg/ml; with A. baumannii ATCC 19,606 [2], 7.81 (7.81) µg/ml; in [3], 7.81(7.81) µg/ml; in assay [4] it was 7.81(7.81) µg/ml; in assay [5], 7.81(7.81) µg/ml; in [6], 3.91(3.91) µg/ml. Also, the MBC in [7] is recorded as 7.81(7.81) µg/ml. In addition, the MIC in assay [1] is 3.91(3.91) µg/ml; against A. baumannii ATCC 19,606 [2] it was 7.81 µg/mL; in [3], 7.81(7.81) µg/ml; in [4] it was 7.81(7.81) µg/ml; in [5], 7.81(7.81) µg/ml; in [6] it was 3.91(3.91) µg/ml. For the same compound, the MIC is 7.81(7.81) µg/ml in assay [7]; 7.81 µg/mL in assay [9]; 3.91 µg/mL in assay [10]; 15.63 µg/mL in [11]; 3.91 µg/mL in assay [12]; 3.91 µg/mL in [13]. Moreover, the MIC in assay [14] came out at 1.95 µg/mL; in assay [15], 3.91 µg/mL; in [16], 7.81 µg/mL; in [17], 1.95 µg/mL.

Source of the values: paper PMC9508196 (Scientific Reports, 2022).
